This note sets out measurements from PubChem BioAssay AID179 (DTP/NCI, 2004).

Several values for one entry are separate records, joined by “and”; a condition that tells them apart may be missing. Equal entries are not always repeated. Activity calls are given as the source filed them.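 The calls were made as follows: active = compounds giving half or more protection of infected cells from virus-caused growth loss, again on retest; inactive = the rest.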

This test relates to CEM cells HIV-1 protection, formazan growth assay. The experiment in a line: NCI AIDS Antiviral Assay. The conditions noted are these: for IC50: measured here: growth of uninfected CEM cells. In outline: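 Five concentrations of each compound were applied to infected and uninfected human CEM cells. Protection from HIV-1 was judged from growth measured with a soluble formazan assay.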

For orientation: EC50 means the concentration giving half of the maximal effect. By IC50 is commonly meant the point on the concentration scale where inhibition reaches its midpoint. Read a low IC50 as greater potency.

On to `O=C1C=CC(=Nc2ccc3c(c2)Cc2ccccc2-3)O1`, for which the EC50 was greater than 200 µM and the IC50 was found to be 32.4 µM.
The matching figures for `CCOC(=O)C(=O)Nc1c(CC)cccc1C(C)C`: greater than 355 µM and greater than 355 µM.
For `C/C1=C\C(=O)OC2CC(CCC(C)/C=C/CC1)OC(O)(C1CSC(=O)N1)C2` (stereo not drawn), the EC50 was greater than 129 µM and the IC50 was 3.98 µM.
The matching figures for `Oc1ccc2ccccc2c1C=Nc1ccc(SSc2ccc(N=Cc3c(O)ccc4ccccc34)cc2)cc1`: greater than 200 µM and 30.2 µM.
The matching figures for `Cc1c(CN2CCOCC2)c(CN2CCOCC2)c(C)n1-c1ccc(Cl)cn1`: greater than 200 µM and greater than 200 µM.
The matching figures for `CCOC(=O)c1nc2ccccc2nc1Nc1cc(OC)c(OC)c(OC)c1`: greater than 200 µM and greater than 200 µM.
As for `CC(C)(C)C1(C#N)C(=O)N(c2ccc(N3C(=O)C(C#N)(C(C)(C)C)C34c3ccccc3-c3ccccc34)cc2)C12c1ccccc1-c1ccccc12` (stereo not drawn), the EC50 was greater than 372 µM and the 50% inhibitory concentration (IC50) was 107 µM.
Take `CCCCCCCCC#CCCCCCCCCCC[C@@H]1C(=O)O[C@H](C)[C@@H]1O` (tested in a mixture with another compound): the EC50 is greater than 200 µM and the half-maximal inhibitory concentration (IC50) came to 35.5 µM.
For the compound `c1ccc2c(c1)c(N1CCCCC1)cc1nc3c(cc(N4CCCCC4)c4ccccc43)nc12`, the EC50 was greater than 100 µM and the IC50 was greater than 100 µM.
As for `COC(=O)c1c(C)cccc1C1CN=NC12Cc1ccccc1C2=O` (stereo not drawn), the 50% effective concentration (EC50) is 27.5 µM and the IC50 was found to be 102 µM.
Regarding `CCOC(=O)C1(Cc2ccc3c(c2)CCC3)Cc2cc3c(cc2C1=O)CCC3` (stereo not drawn), the EC50 was greater than 200 µM and the 50% inhibitory concentration (IC50) is 23.4 µM.
On the same counts, the results for `CC(C)(C)OC(=O)C1/C(=C/CBr)CN1C(=O)OC(C)(C)C` (stereo not drawn) are greater than 200 µM and 3.98 µM.
With `Cc1ccc([N+](=O)[O-])c2c(NCCCN(C)C)c3ccccc3nc12`, the EC50 was greater than 0.2 µM and the IC50 was 0.0513 µM.
The matching figures for `O=c1nc2n(cc1F)C1OC(CCl)C(O)C1O2` (stereo not drawn): greater than 200 µM and greater than 200 µM.
As for `O=C1C2C3CCC(C3)C2C(=O)C2C3CCC(C3)C12` (stereo not drawn), the EC50 is greater than 200 µM and the IC50 was 186 µM.
On the same counts, the results for `O=C(C/C(=N/O)C(=O)NC1=C(Cl)C(=O)c2ccccc2C1=O)CC(c1ccccc1)c1c(O)c2ccccc2oc1=O` (stereo not drawn) are greater than 12.3 µM and 6.61 µM.
On the same counts, the results for `COc1ccc(C(=O)CC(=O)c2ccc3ccccc3n2)c(O)c1OC` are greater than 200 µM and 12.9 µM.
On the same counts, the results for `O=S(=O)(NCCO)c1cc[c]([Sb](=[O])([OH])[OH])cc1` are greater than 200 µM and greater than 200 µM.
As for `CCCCC(=O)NS(=NC(=O)c1ccccc1)C(Cl)(Cl)Cl` (stereo not drawn), the EC50 was greater than 200 µM and the IC50 was greater than 200 µM.
With `COC1CC2(C[Si](C)(C)C)OC(=O)OC2C(C)O1` (stereo not drawn), the result was inactive.
With `Cn1c2ccccc2c(=O)c2c([N+](=O)[O-])ccc(NCCN)c21`, the outcome was inactive.
For the compound `c1ccc(Oc2ncnc3ccccc23)cc1`, the EC50 is greater than 200 µM and the half-inhibitory concentration (IC50) amounted to 63.1 µM.
The matching figures for `Cn1ccc(C(=O)NCCCCCNC(=O)c2ccn(C)c(=O)c2O)c(O)c1=O`: greater than 200 µM and greater than 200 µM.
On the same counts, the results for `N#CC[C@@H](O)COc1ccccc1` are greater than 200 µM and greater than 200 µM.
Regarding `CN(C)c1ccc(-c2cc(C(=O)O)c3c(ccc4ccccc43)n2)cc1`, the EC50 was greater than 20.9 µM and the IC50 is greater than 20.9 µM.
As for `O=[N+]([O-])c1ccc(C2=NOC(c3ccccc3F)N2C23CC4CC(CC(C4)C2)C3)cc1` (stereo not drawn), the EC50 was 195 µM and the half-inhibitory concentration (IC50) was greater than 200 µM.
The matching figures for `COC(=O)[C@@H](NS(=O)(=O)CC12CCC(CC1)C2(C)C)C(C)(C)C`: greater than 200 µM and greater than 200 µM.
The matching figures for `O=S(=O)(O)C(O)CC=C(C(O)S(=O)(=O)O)C(O)S(=O)(=O)O` (stereo not drawn): greater than 200 µM and 81.3 µM.
With `[N-]=[N+]=NC1CC(n2cc(CO)c(=O)[nH]c2=O)OC1CO` (stereo not drawn), the EC50 is greater than 437 µM and the 50% inhibitory concentration (IC50) is 240 µM.
On the same counts, the results for `NCP1(=O)CNC(=O)NC1` are greater than 1510 µM and greater than 1510 µM.
On the same counts, the results for `CC(=O)O[C@H]1CC[C@@]2(C)C(=C[C@H](c3ccc(O)cc3)[C@H]3[C@@H]4CC[C@H](OC(C)=O)[C@@]4(C)CC[C@@H]32)C1` are greater than 200 µM and 22.9 µM.
In the case of `CC(=O)OCC1OC(n2c(S)c(C#N)c(-c3ccccc3)c(C#N)c2=O)C(OC(C)=O)C(OC(C)=O)C1OC(C)=O` (stereo not drawn), the EC50 was greater than 200 µM; the half-maximal inhibitory concentration (IC50) was > 200 µM and 21.9 µM.
`N#C/C(N)=C(\C#N)N=C1OCC(O)C(O)C1O` (stereo not drawn): the outcome was inactive.
Take `COc1ccc2c(c1)NC(=O)C(O)(Cc1ccccc1)C2=O` (stereo not drawn): the EC50 is greater than 200 µM and the half-inhibitory concentration (IC50) was greater than 200 µM.
As for `CCC(C(=O)c1ccccc1)C(CCCC(=O)Nc1c(C)cccc1C)N=O` (stereo not drawn), the EC50 is greater than 661 µM and the IC50 stood at 355 µM.
On the same counts, the results for `O=C(O)C(=Cc1ccc(-c2ccccc2)cc1)C(=O)O` are greater than 251 µM and 15.5 µM.
With `O=C(O)c1nc2sc(C(=O)O)nc2s1`, the outcome was inactive.
As for `CCCCCCCCCCCC(=O)OC[C@@H](C[As](=O)(O)O)OC(=O)CCCCCCCCCCC`, the EC50 is greater than 200 µM and the IC50 came out at 3.89 µM.
Take `O=S1(=O)CC2(N3CCOCC3)CCCC21` (stereo not drawn): the EC50 was greater than 1070 µM and the half-inhibitory concentration (IC50) turned out to be 229 µM.
The matching figures for `O=C(NCC(C(=O)OCc1ccccc1)C(=O)OCc1ccccc1)OCc1ccccc1`: greater than 200 µM and 63.1 µM.
`CCOC(OCC)N1C(=O)C2(C(OCC)OCC)CC3C(OC(=O)N3N)c3cccc1c32` (stereo not drawn): the outcome was inactive.
As for `CCCCCCSC[C@H](OC(C)=O)[C@@H](OC(C)=O)[C@@H](OC(C)=O)[C@@H](COC(C)=O)OC(C)=O`, the EC50 is greater than 200 µM and the concentration for half-maximal inhibition (IC50) came to 53.7 µM.
Take `Cc1ccc2c(N(CCO)CCO)cc(-c3ccccc3)nc2n1`: the EC50 is greater than 200 µM and the IC50 was greater than 200 µM.
Take `CCN(CC)CCNc1ccc(C)c2sc3ccccc3c(=O)c12`: the EC50 is greater than 200 µM and the half-inhibitory concentration (IC50) worked out at 11 µM.
As for `CCN1CC2(OC(=O)c3ccccc3NC(C)=O)CCC(OC)C34C1C(CC23)C1(O)CC(OC)C2CC4C1(O)C2OC` (stereo not drawn), the outcome was inactive.
For `COc1ccc(/C=C/C(=O)C(C)(C)CN2CCCCC2)cc1`, the EC50 is greater than 933 µM and the IC50 worked out at 10.5 µM.
For the compound `CC(CNN=C(N)N)NN=C(N)N` (stereo not drawn), the EC50 is greater than 200 µM and the IC50 was greater than 200 µM.
Turning to `O=P1(Nc2ccccc2)OCCCN1Cc1ccc(Cl)c(Cl)c1` (stereo not drawn), the EC50 was greater than 200 µM and the 50% inhibitory concentration (IC50) came out at 53.7 µM.
Turning to `CCCCCSCCCCCCCC(=O)OCC1OC(n2cc(C)c(=O)[nH]c2=O)CC1N=[N+]=[N-]` (stereo not drawn), the result was active and the IC50 came out at 91.2 µM.
`CCCCCC#COC1CC(C)CC[C@@H]1C(C)C` (stereo partly drawn): the EC50 was greater than 200 µM and the concentration for half-maximal inhibition (IC50) was found to be 110 µM.
`N#CC(c1ccccc1)N(CCOCCOCCN(C(=O)c1cccc2ccccc12)C(C#N)c1ccccc1)C(=O)c1cccc2ccccc12` (stereo not drawn): the EC50 was greater than 200 µM and the IC50 stood at 13.2 µM.
On the same counts, the results for `O=c1[nH]cnc2cc3c(cc12)nc1n3CCOC1` are greater than 52.5 µM and greater than 52.5 µM.
On the same counts, the results for `CC[n+]1c(/C=C/c2cc(C(=O)OC)n3c2sc2ccccc23)sc2ccccc21` are greater than 200 µM and 11 µM.
On the same counts, the results for `O=C(NC(=Nc1ccccc1)SCSC(=Nc1ccccc1)NC(=O)c1c(Cl)cccc1Cl)c1c(Cl)cccc1Cl` are greater than 200 µM and 14.1 µM.
On to `C=C(CN(C)C)C(=O)c1ccccc1[N+](=O)[O-]`, for which the EC50 was greater than 200 µM and the half-inhibitory concentration (IC50) is 10.7 µM.
The matching figures for `C/C=C1\CN2CCC34c5ccccc5N(C)C35OCC4(C(=O)OC)C1CC25` (stereo not drawn): greater than 83.2 µM and 25.7 µM.
The matching figures for `CCCS(=O)(=O)/C(=C(\c1ccc(Br)cc1)S(=O)(=O)CCC)c1ccc(Br)cc1`: greater than 2.63 µM and greater than 2.63 µM.
On the same counts, the results for `CC1=NN(C(=O)CC(=O)Nc2ccccc2)C(=O)C1N=Nc1ccc(S(N)(=O)=O)cc1` (stereo not drawn) are greater than 151 µM and 75.9 µM.
As for `CCOc1ccc(NC(=O)C2=C(C)NC(C)=C(C(=O)Nc3ccc(OCC)cc3)C2c2ccccc2)cc1`, the EC50 is greater than 36.3 µM and the IC50 was greater than 36.3 µM.
Turning to `Cc1nnc2n1N=C1CC(C)(C)CC(=O)C1S2` (stereo not drawn), the EC50 is greater than 105 µM and the IC50 was greater than 105 µM.
Regarding `O=C(CC(=O)Nc1ccccc1Cl)NNC(c1cc(N=Nc2ccc(Br)cc2)ccc1O)P(O)O` (stereo not drawn), the EC50 was greater than 100 µM and the IC50 came to 1.32 µM.
Take `O=C(N/C(=C\c1cc(Cl)ccc1Cl)c1nc2ccc(Cl)cc2[nH]1)c1ccccc1`: the outcome was inactive.
For the compound `Cc1ccc(S(=O)(=O)OC2C(O)C(CO)OC2n2c(Br)c(C(N)=O)c3c(N)ncnc32)cc1` (stereo not drawn), the EC50 was greater than 200 µM and the IC50 is greater than 200 µM.
As for `COc1c(Cl)nc2ccccc2c1N=[N+]=[N-]`, the EC50 was greater than 200 µM and the 50% inhibitory concentration (IC50) was 135 µM.
On the same counts, the results for `CCSc1cccc(C(=O)O)c1` are greater than 513 µM and greater than 513 µM.
The matching figures for `CCCCCCCCCCCCCOC(=O)CC(C(=O)OCCCCCCCCCCCCC)S(=O)(=O)O` (stereo not drawn): greater than 200 µM and 102 µM.
The matching figures for `O=C(Sc1ccccc1)n1nc(Cl)c2ccc([N+](=O)[O-])cc21`: greater than 200 µM and 43.7 µM.
With `C=C1[C@@H]2O[C@@H]3CC(=O)[C@@H](O)[C@]2(C(=O)N1OC)[C@H]3/C=C/C`, the EC50 is greater than 115 µM and the IC50 is greater than 115 µM.
As for `CCCCCCCCCCCCCCCCOCC(Cl)COP(=O)(O)OP(=O)(O)OCC1OC(n2cnc3c(N)ncnc32)C(O)C1O` (stereo not drawn), the EC50 was greater than 100 µM and the IC50 is greater than 100 µM.
For the compound `O=C(O)c1ccccc1O.OC1CCCC2CCC[N-]C12.[Cu+]` (stereo not drawn), the EC50 was greater than 200 µM and the IC50 is 0.603 µM.
